Assay results published in patent publication US5574059A, “Treating disorders mediated by vascular smooth muscle cell proliferation” (priority 1995, dated 1996).

Experiments:
rat carotid artery = assay: balloon angioplasty of rat left common carotid artery; assay type: in vivo; details: 10 mg/kg/24hr for 7 days, s.c. minipump
Description: To determine the actions of idazoxan in inhibiting the proliferation of vascular smooth muscle cells in vivo, we tested the effect of balloon angioplasty in rat carotid artery. Left common carotid artery balloon angioplasty was performed as described by Ohlstein et al, Proc. Natl. Acad. Sci. 90, 6189-6193 (1993). Rats were implanted, subcutaneously, with Alzet minipumps (1 μl/hr delivery rate) containing idazoxan to deliver a dose of 10 mg/kg/24hr for 7 days. Control rats were implanted with minipumps containing sterile saline. Ballon angioplasty of left common carotid artery was performed on fourth day of idazoxan administration and animals were sacrificed 10 days after the surgery. Left and right common carotid arteries were removed, cross-sections (10 μm) were cut in a cryostat and stained with eosin and hematoxylin. Blood vessel layers were quantitated in an imaging system and the ratio of internal and external diameters were calculated.

[1] = test system: rat aortic smooth muscle cells; assay: serum-stimulated proliferation, 3H-thymidine incorporation into DNA; assay type: cell-based; details: 10% fetal calf serum stimulated
Description: Inhibition of serum-stimulated proliferation of rat aortic smooth muscle cells is determined as follows: The antiproliferative effect of potential drug is determined by measuring the incorporation of ^3 H-thymidine into cellular DNA. Exposure of quiescent vascular smooth muscle cell to serum, which contains many growth factors, results in a large increase in cellular proliferation as measured by ^3 H-thymidine incorported into DNA. The inhibitory effect of potential drug on serum-stimulated proliferation is tested by adding a drug before the addition of serum and determining if the serum-stimulated proliferation is reduced. […] In that event, antagonizing of the antiproliferative effect of idazoxan is determined by adding antagonist before the addition of idazoxan to serum-stimulated vascular smooth muscle cells.
In this experiment, the proliferation of vascular smooth muscle cells was determined by measuring DNA replication. The incorporation of ^3 H-thymidine into DNA was used to measure the replication of DNA as described in Erlinge, D., et al, Am. J. Physiol. 265, H1089-H1097 (1993) which is incorporated herein by reference.
Rat aortic smooth muscle cells prepared as described in In Vitro Example 1 were plated into 24-well plates at a density of about 30,000 cells/well in 10% fetal calf serum (FCS). After 48 hours, the cells were starved in 0.5% FCS for another 48 hours to decrease proliferation and induce quiescence. The medium was replaced by serum-free medium 24 hours prior to addition of drug (drugs are described below) and 10% fetal calf serum or only 10% fetal calf serum in the case of the control. The cells were then incubated for 24 hours and ^3 H-thymidine (1 μCi/well) was added at hour 20. At the end of the 24 hour period, the medium was aspirated and the cells were washed three times with phosphate-buffered saline and twice with ice-cold trichloroacetic acid. Fixed cells were then solubilized in 0.2M NaOH and sonicated. A 100 μl aliquot was used for scintillation counting.

[2] = test system: human coronary artery smooth muscle cells; assay: 3H-thymidine incorporation in normal human coronary artery smooth muscle cells; assay type: cell-based
Description: In this experiment the antiproliferative action of idazoxan was tested in normal human coronary artery smooth muscle cells (Clonetics Corp.). Proliferation of smooth muscle cells was measured as described above by the incorporation of ^3 H-thymidine into cellular DNA. Following the incubation of semi-confluent smooth muscle cells in serum-free medium for 24 hr, growth is stimulated by either 5% fetal calf serum (FCS) or platelet derived growth factor (PDGF) (10 ng/well) in the presence and absence of various concentrations of idazoxan. […] In Table 4, "DPM" stands for disintegrations per minute which is a measure of the radioactivity incorporated into the cellular DNA by 3H-thymidine.

[3] = Example III: patient with coronary artery disease, angioplasty; assay type: in vivo, human
Description: A person presents with the onset of chest pain on exertion. […] Ten days before angioplasty, the patient is begun on 75 or 100 mg/day of idazoxan. […] Treatment with 50 mg/day idazoxan is continued for 3 months.

[4] = Example V: patient with Type I diabetes mellitus, overgrowth of retinal vessels; assay type: in vivo, human; details: idazoxan 75 mg/day; UK 14,304 60, naphazoline 125, cirazoline 60, agmatine 900 mg/day
Text: A person with Type I diabetes mellitus and maintained on insulin presents with progressive symptoms of loss of visual acuity bilaterally with evidence on opthalmascopic examination of overgrowth of retinal vessels and hemorrhages.

## c1ccc2c(c1)OCC(C1=NCCN1)O2 (stereo not drawn) [Idazoxan, 2-[2-(1,4-benzodioxanyl)]-2-imidazoline]
Rat carotid artery
  internal/external diameter ratio, non-injured right common carotid artery vs control: no significant difference
Rat carotid artery; 10 days after surgery, saline control 21.9 ±3.3
  internal/external diameter ratio of lesion side as percent of control side: 6.5 ±3.4%
Rat carotid artery; injured left common carotid artery
  lesion side as percent of control side vs saline, in words: significant decrease
[1]
  inhibition of vascular smooth muscle cell proliferation, in words: potently inhibited
[1]; Rattus norvegicus, 24 h, read-out: 3H-thymidine incorporated (IC50)
  IC50: 4.5 ± 1.4 µM
[2]; FCS (5%) + idazoxan 1 μM
  3H-thymidine incorporated: 5540 ± 430 DPM/well
[2]; FCS (5%) + idazoxan 10 μM
  3H-thymidine incorporated: 2370 ± 230 DPM/well
[2]; FCS (5%) + idazoxan 100 μM
  3H-thymidine incorporated: 430 ± 98 DPM/well
[2]; PDGF (10 ng/well) + idazoxan 1 μM
  3H-thymidine incorporated: 3220 ± 180 DPM/well
[2]; PDGF (10 ng/well) + idazoxan 10 μM
  3H-thymidine incorporated: 1890 ± 210 DPM/well
[2]; PDGF (10 ng/well) + idazoxan 100 μM
  3H-thymidine incorporated: 340 ± 60 DPM/well
[2]; stimulated by FCS or PDGF
  incorporation of 3H-thymidine, in words: inhibited the incorporation of ^3 H-thymidine
[3]; idazoxan 50 mg/day continued for 3 months, substitutes, dose not stated
  symptoms / restenosis after angioplasty: remains symptomless without evidence of restenosis
[3]; idazoxan 75 or 100 mg/day from ten days before angioplasty
  chest pain: no further chest pain
[4]
  progression and visual symptoms: arrest of the progression and some regression of the visual symptoms
